According to ChEMBL document CHEMBL4330136, “Shape-based virtual screen for the discovery of novel CDK8 inhibitor chemotypes” (Bioorg Med Chem Lett, 2019):
Values belong to the compound of their own block, whether it stands above or below them.

Tests used:
[1] = target: CDK8/Cyclin C (Homo sapiens, UniProt P49336); experiment: Inhibition of kinase tracer 236 binding to recombinant full length His-tagged human CDK8/CycC expressed in baculovirus expression system preincubated for 20 mins followed by tracer addition and measured after 2 hrs by FRET-based LanthaScreen Eu kinase binding assay
[2] = tested on: HCT-116; experiment: Cell cycle arrest in human HCT116 cells assessed as accumulation at G1-phase at 30 uM after 12 to 16 hrs by propidium iodide staining based flow cytometry (reference value: 30.99%); assay type: functional
[3] = tested on: HCT-116; experiment: Cell cycle arrest in human HCT116 cells assessed as accumulation at S-phase at 30 uM after 12 to 16 hrs by propidium iodide staining based flow cytometry (reference value: 55.74%); assay type: functional
[4] = tested on: SW-620; experiment: Cell cycle arrest in human SW620 cells assessed as accumulation at G1-phase at 15 uM after 12 to 16 hrs by propidium iodide staining based flow cytometry (reference value: 24.69%); assay type: functional
[5] = tested on: SW-620; experiment: Cell cycle arrest in human SW620 cells assessed as accumulation at G2-phase at 15 uM after 12 to 16 hrs by propidium iodide staining based flow cytometry (reference value: 19.02%); assay type: functional
[6] = tested on: SW-620; experiment: Cell cycle arrest in human SW620 cells assessed as accumulation at G1-phase at 5 uM after 12 to 16 hrs by propidium iodide staining based flow cytometry (reference value: 24.69%); assay type: functional
[7] = tested on: HCT-116; experiment: Cell cycle arrest in human HCT116 cells assessed as accumulation at G2-phase at 30 uM after 12 to 16 hrs by propidium iodide staining based flow cytometry (reference value: 13.28%); assay type: functional
[8] = tested on: HCT-116; experiment: Induction of G1-phase to S-phase transition arrest in human HCT116 cells after 12 to 16 hrs by propidium iodide staining based flow cytometry; assay type: functional, cell-based
[9] = tested on: HCT-116; experiment: Cell cycle arrest in human HCT116 cells assessed as accumulation at S-phase at 5 uM after 12 to 16 hrs by propidium iodide staining based flow cytometry (reference value: 55.74%); assay type: functional
[10] = tested on: HCT-116; experiment: Cell cycle arrest in human HCT116 cells assessed as accumulation at G2-phase at 15 uM after 12 to 16 hrs by propidium iodide staining based flow cytometry (reference value: 13.28%); assay type: functional
[11] = tested on: SW-620; experiment: Cell cycle arrest in human SW620 cells assessed as accumulation at S-phase at 5 uM after 12 to 16 hrs by propidium iodide staining based flow cytometry (reference value: 53.91%); assay type: functional
[12] = tested on: HCT-116; experiment: Cell cycle arrest in human HCT116 cells assessed as accumulation at G2-phase at 5 uM after 12 to 16 hrs by propidium iodide staining based flow cytometry (reference value: 13.28%); assay type: functional
[13] = tested on: SW-620; experiment: Cell cycle arrest in human SW620 cells assessed as accumulation at S-phase at 15 uM after 12 to 16 hrs by propidium iodide staining based flow cytometry (reference value: 53.91%); assay type: functional
[14] = tested on: HCT-116; experiment: Cell cycle arrest in human HCT116 cells assessed as accumulation at G1-phase at 5 uM after 12 to 16 hrs by propidium iodide staining based flow cytometry (reference value: 30.99%); assay type: functional
[15] = tested on: HCT-116; experiment: Growth inhibition of human HCT116 cells after 72 hrs by Celltiter-glo assay; assay type: functional, cell-based; conditions: HCT-116, 72 h
[16] = tested on: SW-620; experiment: Cell cycle arrest in human SW620 cells assessed as accumulation at S-phase at 30 uM after 12 to 16 hrs by propidium iodide staining based flow cytometry (reference value: 53.91%); assay type: functional
[17] = tested on: HCT-116; experiment: Cell cycle arrest in human HCT116 cells assessed as accumulation at S-phase at 15 uM after 12 to 16 hrs by propidium iodide staining based flow cytometry (reference value: 55.74%); assay type: functional
[18] = tested on: SW-620; experiment: Cell cycle arrest in human SW620 cells assessed as accumulation at G2-phase at 5 uM after 12 to 16 hrs by propidium iodide staining based flow cytometry (reference value: 19.02%); assay type: functional
[19] = tested on: SW-620; experiment: Cell cycle arrest in human SW620 cells assessed as accumulation at G2-phase at 30 uM after 12 to 16 hrs by propidium iodide staining based flow cytometry (reference value: 19.02%); assay type: functional
[20] = tested on: SW-620; experiment: Cell cycle arrest in human SW620 cells assessed as accumulation at G1-phase at 30 uM after 12 to 16 hrs by propidium iodide staining based flow cytometry (reference value: 24.69%); assay type: functional
[21] = tested on: HCT-116; experiment: Cell cycle arrest in human HCT116 cells assessed as accumulation at G1-phase at 15 uM after 12 to 16 hrs by propidium iodide staining based flow cytometry (reference value: 30.99%); assay type: functional
[22] = tested on: SW-620; experiment: Growth inhibition of human SW620 cells after 72 hrs by Celltiter-glo assay; assay type: functional, cell-based; conditions: SW-620, 72 h

Chain of CDK8/Cyclin C (P49336 whole entry): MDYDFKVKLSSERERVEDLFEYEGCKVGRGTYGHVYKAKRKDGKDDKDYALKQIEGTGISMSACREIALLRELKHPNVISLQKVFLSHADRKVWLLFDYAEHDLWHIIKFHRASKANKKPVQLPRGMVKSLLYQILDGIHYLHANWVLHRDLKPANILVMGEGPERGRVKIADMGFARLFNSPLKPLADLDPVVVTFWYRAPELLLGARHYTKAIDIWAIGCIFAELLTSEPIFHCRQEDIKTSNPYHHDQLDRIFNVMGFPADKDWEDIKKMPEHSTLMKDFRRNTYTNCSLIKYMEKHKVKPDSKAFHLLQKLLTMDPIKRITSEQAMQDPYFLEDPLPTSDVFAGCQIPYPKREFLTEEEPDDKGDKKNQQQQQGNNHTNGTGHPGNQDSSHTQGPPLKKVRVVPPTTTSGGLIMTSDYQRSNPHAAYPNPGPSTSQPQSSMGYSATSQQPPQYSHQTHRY
Chain of CDK8/Cyclin C (P24863 whole entry, further chain): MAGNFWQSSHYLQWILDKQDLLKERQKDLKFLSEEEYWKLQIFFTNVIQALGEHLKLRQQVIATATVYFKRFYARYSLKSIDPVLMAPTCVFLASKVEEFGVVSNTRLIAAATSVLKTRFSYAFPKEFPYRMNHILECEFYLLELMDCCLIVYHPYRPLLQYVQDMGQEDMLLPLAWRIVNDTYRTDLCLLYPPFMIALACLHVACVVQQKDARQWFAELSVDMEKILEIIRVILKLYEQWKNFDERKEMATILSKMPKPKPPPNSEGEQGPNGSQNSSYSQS

- IC50 [1]: 2.9 µM
Structure (SMILES): COc1ccc(CNc2ncnc3scc(-c4ccccc4)c23)cc1

- IC50 [1]: 1.3 µM
- IC50 [15]: 4.5 µM
- IC50 [22]: 25 µM
Structure (SMILES): COc1ccc(C(=O)c2cnc3ccc(F)cc3c2N2CCCCC2)cc1
- Activity [2]: 62.66%
- Activity [3]: 23.48%
- Activity [4]: 28.05%
- Activity [5]: 17.69%
- Activity [6]: 25.08%
- Activity [7]: 13.86%
- Activity [8]: Dose-dependent effect
- Activity [9]: 51.63%
- Activity [10]: 13.92%
- Activity [11]: 54.27%
- Activity [12]: 13.13%
- Activity [13]: 51.89%
- Activity [14]: 35.24%
- Activity [16]: 38.54%
- Activity [17]: 38.98%
- Activity [18]: 18.15%
- Activity [19]: 16.94%
- Activity [20]: 41.68%
- Activity [21]: 47.09%

- IC50 [15]: 70.2 µM
- IC50 [22]: 52.4 µM
Structure (SMILES): Cc1n[nH]c2ncc(C(=O)N3CCC[C@H]3c3ccc(Cl)cc3)cc12
- Activity [2]: 50.47%
- Activity [3]: 22.36%
- Activity [4]: 30.31%
- Activity [5]: 12.35%
- Activity [6]: 27.52%
- Activity [7]: 27.16%
- Activity [9]: 29.34%
- Activity [10]: 24.8%
- Activity [11]: 56.44%
- Activity [12]: 21.76%
- Activity [13]: 54.86%
- Activity [14]: 48.91%
- Activity [16]: 50.77%
- Activity [17]: 27.98%
- Activity [18]: 13.83%
- Activity [19]: 11.66%
- Activity [20]: 34.8%
- Activity [21]: 47.08%
